According to patent US10744125B2, “Adenosine A3 receptor modulators” (Palobiofarma, S.L., priority 2017, dated 2020):

What was measured:
human A3 receptors = human A3 receptors (Homo sapiens (Human), UniProt P0DMS8); assay: A3 adenosine receptor competition radioligand binding assay; details: membranes from human A3 receptors transfected to CHO cells, [3H]-NECA
Experimental: (§1) Human membranes for recombinant adenosine receptors were purchased from Receptor Biology, Inc. (USA).
A3 Adenosine Receptor Competition Radioligand Binding Assay
Competitive assays were carried out by incubation of membranes from human A3 receptors transfected to CHO cells, [^3H]-NECA, buffer (20 mM HEPES (pH 7.4), 100 mM NaCl, 10 mM MgCl2, 2 units/ml adenosine deaminase), and unlabelled ligand in a total volume of 0.2 ml for 60 min at 25° C. R-PIA was used to determine nonspecific binding. It was filtered over Schleicher & Schuell GF/52 (presoaked with 0.5% polyethyleneimine) in a Brandel cell harvester. The unbound radioligand was removed with 3×250 μl of 20 mM HEPES (pH 7.4), 100 mM NaCl, 10 mM MgCl2.

human A2A receptors = human A2A receptors (Homo sapiens (Human), UniProt P29274); assay: A2A adenosine receptor competition radioligand binding assay; details: membranes from human A2A receptors transfected to HeLa cells, [3H]-ZM241385
Experimental: as §1
A2A Adenosine Receptor Competition Radioligand Binding Assay
Competitive assays were carried out by incubation of membranes from human A2A receptors transfected to HeLa cells, [^3H]-ZM241385, buffer (Tris-HCl 50 mM (pH=7.4), 10 mM MgCl2, EDTA 1 mM and 2 units/ml adenosine deaminase), and unlabelled ligand in a total volume of 0.2 ml for 60 min at 25° C. NECA was used to determine nonspecific binding. It was filtered over Schleicher & Schuell GF/52 (presoaked with 0.5% polyethyleneimine) in a Brandel cell harvester. The unbound radioligand was removed with 3×250 μl of 20 mM Tris-HCl 50 mM (pH=7.4), 10 mM MgCl2, EDTA 1 mM.

adenosine A2B receptor = adenosine A2B receptor (Homo sapiens (Human), UniProt P29275); assay: A2B adenosine receptor competition radioligand binding assay; details: human recombinant source (HEK-293 cells), [3H]DPCPX
Experimental: A2B Adenosine Receptor Competition Radioligand Binding Assay
The binding assay for adenosine A2B receptor subtype was carried out on human recombinant source (HEK-293 cells) and [^3H]DPCPX as radioligand, according to assay disclosed by Fredholm et al. (International Union of Pharmacology. XXV. Nomenclature and classification of adenosine receptors, Pharmacol Rev. 2001 December; 53(4):527-52).

hA1 receptors = hA1 receptors (Homo sapiens (Human), UniProt P30542); assay: Adenosine A1 receptor subtype competition radioligand binding assay; details: hA1 receptors transfected to CHO cells, [3H]DPCPX
Experimental: as §1
Adenosine A1 Receptor Subtype Competition Radioligand Binding Assay
Competition assays were carried out by incubation of human recombinant membranes of adenosine receptors (Receptor Biology, Inc.) from hA1 receptors transfected to CHO cells, [^3H] DPCPX as radioligand, buffer (HEPES 20 mM (pH=7.4), 10 mM MgCl2, 100 mM NaCl, 2 U/mL of deaminase adenosine and non-labelled ligand in a total volume of 0.2 mL for 90 min at 25° C. R-PIA was used to determinate non-specific binding. Filter over Schleicher & Schuell GF/52 (pre-soaked 0.5% polyethylenimine) in a Brandel cell harvester. Unbound radioligand was removed with HEPES 30 mM (3×250 μl), NaCl (100 mM) and MgCl2 (10 mM).

[1] = tested on: rheumatoid arthritis (RA) patients; details: oral administration twice daily for 12 weeks; cited from earlier work
[2] = tested on: experimental autoimmune uveitis; details: experimental autoimmune uveitis model; cited from earlier work
A3AR receptor = A3AR receptor (Homo sapiens (Human), UniProt P0DMS8); details: read-out: affinity on the A3AR receptor (IC50); cited from earlier work
A3AR receptor, sequence (P0DMS8 whole entry): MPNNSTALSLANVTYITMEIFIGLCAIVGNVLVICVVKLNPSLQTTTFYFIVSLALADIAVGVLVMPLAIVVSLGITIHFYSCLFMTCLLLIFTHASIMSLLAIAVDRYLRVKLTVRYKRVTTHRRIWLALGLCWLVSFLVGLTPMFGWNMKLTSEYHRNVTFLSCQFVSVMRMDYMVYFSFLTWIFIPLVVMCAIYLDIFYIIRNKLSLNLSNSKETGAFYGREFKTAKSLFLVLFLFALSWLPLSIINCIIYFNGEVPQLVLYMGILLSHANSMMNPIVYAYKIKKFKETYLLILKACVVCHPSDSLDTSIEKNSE

hA1 receptors, sequence (P30542 whole entry): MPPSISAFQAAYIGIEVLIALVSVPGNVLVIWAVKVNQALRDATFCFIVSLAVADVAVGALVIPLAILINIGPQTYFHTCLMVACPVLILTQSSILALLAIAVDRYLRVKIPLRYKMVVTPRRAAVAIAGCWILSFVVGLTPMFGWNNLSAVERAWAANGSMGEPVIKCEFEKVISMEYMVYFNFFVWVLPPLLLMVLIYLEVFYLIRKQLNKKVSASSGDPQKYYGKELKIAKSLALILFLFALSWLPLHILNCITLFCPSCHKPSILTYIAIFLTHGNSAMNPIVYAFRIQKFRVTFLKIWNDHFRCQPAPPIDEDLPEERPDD
adenosine A2B receptor, sequence (P29275 whole entry): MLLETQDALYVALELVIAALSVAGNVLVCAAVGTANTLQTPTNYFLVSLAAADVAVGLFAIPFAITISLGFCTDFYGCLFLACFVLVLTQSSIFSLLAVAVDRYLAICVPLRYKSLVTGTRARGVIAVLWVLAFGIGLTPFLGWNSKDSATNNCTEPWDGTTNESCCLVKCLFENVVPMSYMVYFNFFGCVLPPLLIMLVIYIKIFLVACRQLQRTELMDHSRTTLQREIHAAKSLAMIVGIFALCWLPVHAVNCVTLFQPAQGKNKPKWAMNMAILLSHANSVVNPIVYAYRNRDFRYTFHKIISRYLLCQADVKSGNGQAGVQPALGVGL
human A2A receptors, sequence (P29274 whole entry): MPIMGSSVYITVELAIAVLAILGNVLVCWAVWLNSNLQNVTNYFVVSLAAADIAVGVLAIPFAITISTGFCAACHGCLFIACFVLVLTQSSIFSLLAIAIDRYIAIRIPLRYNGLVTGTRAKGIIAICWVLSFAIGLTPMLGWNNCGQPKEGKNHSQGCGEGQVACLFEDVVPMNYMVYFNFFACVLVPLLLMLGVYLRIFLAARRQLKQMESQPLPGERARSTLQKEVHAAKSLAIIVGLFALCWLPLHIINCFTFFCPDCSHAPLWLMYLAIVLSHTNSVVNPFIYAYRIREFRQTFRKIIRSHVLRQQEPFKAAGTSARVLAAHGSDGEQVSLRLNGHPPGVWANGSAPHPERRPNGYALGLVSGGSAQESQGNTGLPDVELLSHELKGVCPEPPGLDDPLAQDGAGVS
human A3 receptors, sequence (P0DMS8 whole entry): as the sequence (P0DMS8 whole entry) above

Ki (human A3 receptors) [nM]	Ki (human A2A receptors) [nM]	Ki (adenosine A2B receptor) [nM]	Ki (hA1 receptors) [nM]	Structure (SMILES)	effect on disease signs and symptoms [1]	safety and tolerability [1]	effect on manifestations of uveitis [2]	IC50 (A3AR receptor) [µM]
26.3	> 1000	> 500	> 500	N#Cc1sc(NC(=O)c2ccc(N3CCC(C(=O)O)CC3)nc2)nc1-c1ccccc1F [Example 5, 1-(5-((5-cyano-4-(2-fluorophenyl)thiazol-2-yl)carbamoyl)pyridin-2-yl) piperidine-4-carboxylic Acid]	–	–	–	–
103	> 1000	> 500	> 500	N#Cc1sc(NC(=O)c2ccc(N3CCC(C(=O)O)CC3)nc2)nc1-c1ccccc1 [Example 1, 1-(5-(5-cyano-4-phenylthiazol-2-ylcarbamoyl)pyridin-2-yl) piperidine-4-carboxylic Acid]	–	–	–	–
–	–	–	–	CNC(=O)[C@H]1O[C@@H](n2cnc3c(NCc4cccc(I)c4)ncnc32)[C@H](O)[C@@H]1O [IB-MECA, 1-deoxy-1-[6-[((3-iodophenyl)methyl)amino]-9H-purin-9-yl]-N-methyl-β-D-ribofuranuronamide]	able to mediate an improvement of disease signs and symptoms	safe, well tolerated	inhibited the clinical and pathological manifestations of uveitis	–
50.3	> 1000	> 1000	> 1000	N#Cc1sc(NC(=O)c2ccc(N3CCC(C(=O)O)CC3)nc2)nc1-c1cccc(F)c1 [Example 6, 1-(5-((5-cyano-4-(3-fluorophenyl)thiazol-2-yl)carbamoyl)pyridin-2-yl) piperidine-4-carboxylic Acid]	–	–	–	–
29.2	> 500	> 1000	> 500	N#Cc1sc(NC(=O)c2ccc(N3CCC(C(=O)O)CC3)nc2)nc1-c1cccs1 [Example 14, 1-(5-(5-cyano-4-(thiophen-2-yl)thiazol-2-ylcarbamoyl)pyridin-2-yl) piperidine-4-carboxylic Acid]	–	–	–	–
65.5	> 1000	> 1000	> 1000	COc1cccc(-c2nc(NC(=O)c3ccc(N4CCC(C(=O)O)CC4)nc3)sc2C#N)c1 [Example 3, 1-(5-((5-cyano-4-(3-methoxyphenyl)thiazol-2-yl)carbamoyl)pyridin-2-yl) piperidine-4-carboxylic Acid]	–	–	–	–
–	–	–	–	COc1cc(Nc2ncc(F)c(Nc3ccc4c(n3)N(COP(=O)(O)O)C(=O)C(C)(C)O4)n2)cc(OC)c1OC [fostamatinib]	–	–	–	0.081
